What was measured:
Format in all cases: biochemical
[1] = molecular target: T1, recombinant human PKA (Homo sapiens, UniProt P17612); assay: Determination of Protein Kinase A inhibition (selectivity); settings: from IC50 values
T1 construct: recombinant human PKA (residues 1-351, N-terminal His-tag); His-tag (N); purchased Invitrogen, Karlsruhe, Germany
Experimental: (§1) 2) Determination of Protein Kinase a and Protein Kinase G Inhibition
(§2) To measure PKA and PKG1-beta inhibition, IC50 values were determined according to the following protocol:
(§3) Active recombinant human PKG1-beta (full-length, with N-terminal His-tag) was purchased from Millipore GmbH, Schwalbach, Germany. Active recombinant human PKA (residues 1-351, N-terminal His-tag) was obtained from Invitrogen, Karlsruhe, Germany. The peptide substrate, Fluorescein-[…]-COOH, was obtained from JPT Peptide Technologies, Berlin, Germany. Adenosine-5′-triphosphate (ATP), bovine serum albumine (BSA), dimethylsulphoxide (DMSO), 4-(2-Hydroxyethyl)piperazine-1-ethanesulfonic acid (Hepes), Brij-35, dithiothreitol (DTT) and Pluronic F-68 were purchased from Sigma-Aldrich, Munich, Germany. Tris(hydroxymethyl)-aminomethane (Tris), magnesium chloride, NaOH, 1M HCl and EDTA were obtained from Merck Biosciences, Darmstadt, Germany. “Complete” protease inhibitor was from Roche Diagnostics, Mannheim, Germany. Test compounds were diluted to the appropriate concentrations in buffer 1 (25 mM Tris-HCl, pH 7.4, 5 mM MgCl2, 2 mM DTT, 0.02% (w/v) BSA, 0.01% Pluronic F-68 and 3% DMSO). PKG1-beta and PKA were diluted to concentrations of 150 ng/ml and 30 ng/ml, respectively, in buffer 2. The peptide substrate and ATP were diluted to concentrations of 3 μM and 120 μM, respectively, in the buffer 2. Two μl of the compound solution were mixed with 2 μl of the diluted enzyme in a 384-well small volume microtiter plate (Greiner, Bio-One, Frickenhausen, Germany), and the kinase reaction was initiated by addition of 2 μl of the solution containing peptide substrate and ATP. After 60 min incubation at 32° C., the reaction was stopped by addition of 20 μl of a solution containing 100 mM Hepes-NaOH, pH 7.4, 0.015% (v/v) Brij-35, 45 mM EDTA and 0.227% chip coating reagent 1 (Caliper Lifescience Inc, Hopkinton, Mass.). Phosphorylation of the substrate peptide was then detected on a Caliper 3000 instrument essentially as described by Pommereau et al (J. Biomol. Screening 9(5), 409-416, 2004). Separation conditions were as follows: Pressure −1.3 psi, upstream voltage −1562 V, downstream voltage −500 V, sample sip time 200 ms, Positive controls (buffer 1 instead of compound) and negative controls (buffer 1 instead of compound and buffer 2 instead of kinase solution) were run in parallel on each plate. The following products/compounds were tested in said assay by using the respective form (salt or free base) obtained as in the examples described above and the following activities were measured.

[2] = molecular target: T2, recombinant human PKG1-beta (Homo sapiens, UniProt Q13976); assay: Determination of Protein Kinase G inhibition (selectivity); settings: from IC50 values
T2 construct: PKG1-beta (full-length, with N-terminal His-tag); His-tag (N); purchased Millipore GmbH, Schwalbach, Germany
T2 sequence (Q13976 1-686 isoform Q13976-2): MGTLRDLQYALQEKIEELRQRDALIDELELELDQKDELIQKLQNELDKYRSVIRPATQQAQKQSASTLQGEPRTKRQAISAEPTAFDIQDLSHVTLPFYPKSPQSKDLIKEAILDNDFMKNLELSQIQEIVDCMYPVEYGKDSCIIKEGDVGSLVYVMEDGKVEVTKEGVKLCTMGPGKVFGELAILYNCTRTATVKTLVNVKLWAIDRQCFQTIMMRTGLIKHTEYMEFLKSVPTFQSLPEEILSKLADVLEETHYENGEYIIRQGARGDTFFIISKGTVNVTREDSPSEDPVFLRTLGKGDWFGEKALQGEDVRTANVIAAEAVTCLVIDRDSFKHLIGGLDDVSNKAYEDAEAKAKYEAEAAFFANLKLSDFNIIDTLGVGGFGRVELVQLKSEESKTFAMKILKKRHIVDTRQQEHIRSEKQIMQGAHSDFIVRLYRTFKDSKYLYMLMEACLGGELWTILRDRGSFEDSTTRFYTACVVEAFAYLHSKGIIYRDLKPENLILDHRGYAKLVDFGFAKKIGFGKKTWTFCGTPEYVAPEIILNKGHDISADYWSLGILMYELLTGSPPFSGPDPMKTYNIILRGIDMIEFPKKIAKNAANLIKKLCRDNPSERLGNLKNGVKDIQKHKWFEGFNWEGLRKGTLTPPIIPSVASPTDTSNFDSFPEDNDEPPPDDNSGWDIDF
Experimental: as §1, §2, §3

[3] = molecular target: T3, human recombinant ROCK II (Homo sapiens, UniProt O75116); assay: Determination of Rho kinase inhibition (ROCK II, Caliper peptide phosphorylation assay); settings: respective form (salt or free base) as obtained in the examples, 60 min at 32° C.
T3 construct: recombinant human ROCK-II residues 11-552; His6 (N); purchased Millipore GmbH, Schwalbach, Germany
In short: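 Enzyme: active N-terminal His6-tagged recombinant human ROCK-II, residues 11-552. Substrate: a fluorescein-labelled peptide, with ATP. IC50 values were determined.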

T3 sequence (O75116 11-552): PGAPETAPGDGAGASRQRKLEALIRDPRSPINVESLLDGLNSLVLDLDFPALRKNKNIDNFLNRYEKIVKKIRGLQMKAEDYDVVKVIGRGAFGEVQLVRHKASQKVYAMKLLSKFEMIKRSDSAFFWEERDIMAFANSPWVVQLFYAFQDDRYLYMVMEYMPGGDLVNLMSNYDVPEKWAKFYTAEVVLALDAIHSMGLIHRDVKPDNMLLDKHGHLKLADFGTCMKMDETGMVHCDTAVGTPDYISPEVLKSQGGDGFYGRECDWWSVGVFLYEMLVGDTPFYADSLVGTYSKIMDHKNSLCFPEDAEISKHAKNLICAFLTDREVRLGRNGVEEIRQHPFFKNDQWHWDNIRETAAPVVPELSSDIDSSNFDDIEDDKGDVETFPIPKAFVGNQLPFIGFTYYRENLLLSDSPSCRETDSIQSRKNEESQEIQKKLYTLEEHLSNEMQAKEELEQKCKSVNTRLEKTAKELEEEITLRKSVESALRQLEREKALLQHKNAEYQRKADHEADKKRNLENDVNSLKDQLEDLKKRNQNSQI

| Structure (SMILES) | Selectivity against PKA [1] | Selectivity against PKG [2] | IC50 [3] | pIC50 [3] |
| --- | --- | --- | --- | --- |
| CCC(N)C1(C(F)(F)F)CCC(Oc2cc3cc[nH]c(=O)c3cc2Cl)CC1 (single isomer, unassigned) [Example 103, 6-[4-(1-Amino-propyl)-4-trifluoromethyl-cyclohexyloxy]-7-chloro-2H-isoquinolin-1-one] | >1000 fold | >1000 fold | ≤ 10 nM |  |
| CCC(N)C1(C2CCOCC2)CCC(Oc2cc3cc[nH]c(=O)c3cc2Cl)CC1 (single isomer, unassigned) [Example 106] | >1000 fold | >1000 fold | ≤ 10 nM |  |
| CCC(N)C1(CC)CCC(Oc2cc3cc[nH]c(=O)c3cc2Cl)CC1 (single isomer, unassigned) [Example 107] | >1000 fold | >1000 fold | ≤ 10 nM |  |
| CCC(N)C1(CC)CCC(Oc2cc3cc[nH]c(=O)c3cc2Cl)CC1 (single isomer, unassigned) [Example 108] | >1000 fold | >10 fold |  | +++++++ (8.0 ≦ pIC50) |
| CCC(N)[C@]1(CC)CC[C@H](Oc2cc3cc[nH]c(=O)c3cc2Cl)CC1 (stereo partly drawn) [Example 34, cis-6-[4-(1-Amino-propyl)-4-ethyl-cyclohexyloxy]-7-chloro-2H-isoquinolin-1-one] | >1000 fold | >300 fold | ≤ 10 nM |  |
| CCCC(N)[C@]1(C(C)C)CC[C@H](Oc2cc3cc[nH]c(=O)c3cc2Cl)CC1 (stereo partly drawn) [Example 35, cis-6-[4-(1-Amino-butyl)-4-isopropyl-cyclohexyloxy]-7-chloro-2H-isoquinolin-1-one] | >300 fold | >10 fold | 10 to 100 nM |  |
| CC[C@]1(C(C)N)CC[C@@H](Oc2cc3cc[nH]c(=O)c3cc2C)CC1 (stereo partly drawn) [Example 37, cis-6-[4-(1-Amino-ethyl)-4-ethyl-cyclohexyloxy]-7-methyl-2H-isoquinolin-1-one] | >300 fold | >100 fold | 10 to 100 nM |  |
| CCCC[C@]1(C(N)CC)CC[C@@H](Oc2cc3cc[nH]c(=O)c3cc2Cl)CC1 (stereo partly drawn) [Example 38, cis-6-[4-(1-Amino-propyl)-4-butyl-cyclohexyloxy]-7-chloro-2H-isoquinolin-1-one] | >1000 fold | >300 fold | ≤ 10 nM |  |
| CCC(N)[C@]1(CC)CC[C@H](Oc2cc3cc[nH]c(=O)c3cc2F)CC1 (stereo partly drawn) [Example 50, cis-6-[4-(1-Amino-propyl)-4-ethyl-cyclohexyloxy]-7-fluoro-2H-isoquinolin-1-one] | >300 fold | >10 fold | 10 to 100 nM |  |
| CCC(N)[C@]1(CC)CC[C@H](Oc2cc3cc[nH]c(=O)c3cc2C)CC1 (stereo partly drawn) [Example 52, cis-6-[4-(1-Amino-propyl)-4-ethyl-cyclohexyloxy]-7-methyl-2H-isoquinolin-1-one] | >100 fold | >10 fold | 100 to 1000 nM |  |
| CCC(N)[C@]1(CC)CC[C@H](Oc2c(C)cc3c(=O)[nH]ccc3c2C)CC1 (stereo partly drawn) [Example 54, cis-6-[4-(1-Amino-propyl)-4-ethyl-cyclohexyloxy]-5,7-dimethyl-2H-isoquinolin-1-one] | >10 fold | >10 fold | 100 to 1000 nM |  |
| CCC(N)[C@]1(OC)CC[C@H](Oc2cc3cc[nH]c(=O)c3cc2Cl)CC1 (stereo partly drawn) [Example 58, cis-6-[4-(1-Amino-propyl)-4-methoxy-cyclohexyloxy]-7-chloro-2H-isoquinolin-1-one] | >300 fold | >300 fold | 10 to 100 nM |  |
| CCC(N)[C@]1(OC)CC[C@@H](Oc2cc3cc[nH]c(=O)c3cc2Cl)CC1 (stereo partly drawn) [Example 59, trans-6-[4-(1-Amino-propyl)-4-methoxy-cyclohexyloxy]-7-chloro-2H-isoquinolin-1-one] | >100 fold | >100 fold | 10 to 100 nM |  |
| C[C@]1(C(N)c2ccccc2)CC[C@@H](Oc2cc3cc[nH]c(=O)c3cc2Cl)CC1 (stereo partly drawn) [Example 61, cis-6-[4-(Amino-phenyl-methyl)-4-methyl-cyclohexyloxy]-7-chloro-2H-isoquinolin-1-one] | >100 fold | >300 fold | 10 to 100 nM |  |
| CCCC(N)[C@]1(C)CC[C@H](Oc2cc3cc[nH]c(=O)c3cc2Cl)CC1 (stereo partly drawn) [Example 62, cis-6-[4-(1-Amino-butyl)-4-methyl-cyclohexyloxy]-7-chloro-2H-isoquinolin-1-one] | >1000 fold | >100 fold | ≤ 10 nM |  |
| CC(C)CC(N)[C@]1(CC2CC2)CC[C@H](Oc2cc3cc[nH]c(=O)c3cc2Cl)CC1 (stereo partly drawn) [Example 64, cis-6-[4-(1-Amino-3-methyl-butyl)-4-cyclopropyl-methyl-cyclohexyloxy]-7-chloro-2H-isoquinolin-1-one] | >1000 fold | >300 fold | ≤ 10 nM |  |
| CCC(N)[C@]1(C2CCCCC2)CC[C@H](Oc2cc3cc[nH]c(=O)c3cc2Cl)CC1 (stereo partly drawn) [Example 65] | >300 fold | >100 fold | 10 to 100 nM |  |
| NC(C1CC1)[C@]1(CC2CCOCC2)CC[C@H](Oc2cc3cc[nH]c(=O)c3cc2Cl)CC1 (stereo partly drawn) [Example 68, cis-6-[4-(Amino-cyclopropyl-methyl)-4-(tetrahydro-pyran-4-ylmethyl)-cyclohexyloxy]-7-chloro-2H-isoquinolin-1-one] | >1000 fold | >300 fold | ≤ 10 nM |  |
| C[C@]1(C(N)C2CC2)CC[C@@H](Oc2cc3cc[nH]c(=O)c3cc2Cl)CC1 (stereo partly drawn) [Example 69, cis-6-[4-(Amino-cyclopropyl-methyl)-4-methyl-cyclohexyloxy]-7-chloro-2H-isoquinolin-1-one] | >1000 fold | >300 fold | ≤ 10 nM |  |
| CC[C@]1(C(N)C2CC2)CC[C@@H](Oc2cc3cc[nH]c(=O)c3cc2Cl)CC1 (stereo partly drawn) [Example 70, cis-6-[4-(Amino-cyclopropyl-methyl)-4-ethyl-cyclohexyloxy]-7-chloro-2H-isoquinolin-1-one] | >1000 fold | >1000 fold | ≤ 10 nM |  |
| CC(N)[C@]1(C2CC2)CC[C@H](Oc2cc3cc[nH]c(=O)c3cc2Cl)CC1 (stereo partly drawn) [Example 72, cis-6-[4-(1-Amino-ethyl)-4-cyclopropyl-cyclohexyloxy]-7-chloro-2H-isoquinolin-1-one] | >300 fold | >100 fold | 10 to 100 nM |  |
